{"source": "patent US20260053767A1", "about": "“Hepatoprotective Compositions And Methods” (Jemyll, Ltd., priority 2022, published 2026)", "format_in_all_cases": "cell-based", "key": {"SIRT3": {"system": "SIRT3", "assay": "SIRT3 protein levels in liver cells", "details": "AML-12 liver cells, 24 hours; p=0.028", "source_text": "(§1) To that end, the inventors used endothelial cells (EOMA cells) and liver cells (AML-12 cells) in vitro and quantified various markers in response to exposure of the cells to environmental challenge in the presence and absence of DDA at low concentrations. Unless indicated otherwise, the DDA concentration in the in vitro experiments was 5 mcg per microliter. More specifically, the inventors measured p-H2AX protein levels as a marker for DNA damage, PGC-1α protein levels as a marker for mitochondrial biogenesis, NAMPT enzyme levels as a marker for potential for NAD+ production, and total antioxidant capacity as a marker of cellular health. In addition, the inventors also measured global SIRT activity as a gauge of activity for all SIRT enzymes, and in particular SIRT1 enzyme levels as markers for autophagy and various beneficial processes associated with a caloric restricted diet, and SIRT3 levels as markers for mitochondrial function and longevity.\nIn still further experiments, the inventors also investigated whether or not DDDA could have stimulatory effects on selected SIRT proteins. More specifically, the inventors tested the effects of DDDA on SIRT3 and SIRT1, and exemplary results are shown in FIG. 9 and FIG. 10, respectively. […] N=5-6 plates per treatment. […] Beyond this trend, however, no other observations were evident. N=5-6 plates per treatment."}, "[1]": {"system": "liver cells (AML-12 cells)", "assay": "DNA damage (p-H2AX protein levels) in liver cells", "details": "AML-12 liver cells, 6 hours; p=0.068", "source_text": "as §1\nFinally, the inventors also investigated whether or not DDDA could have a protective effect against peroxide induced DNA damage, and exemplary results are shown in FIG. 11. […] N=5-6 plates per treatment."}, "SIRT enzymes": {"system": "SIRT enzymes", "assay": "Global SIRT activity in liver cells", "details": "AML-12 liver cells", "source_text": "as §1\nIn still further experiments, the liver cells were also tested for global SIRT activity and exemplary results are shown in FIG. 6."}, "PGC-1α": {"system": "PGC-1α", "assay": "PGC-1α in endothelial cells", "details": "EOMA endothelial cells", "source_text": "as §1\nIn yet a further series of experiments, the inventors also sought to confirm whether or not DDDA would have a modulatory effect in endothelial cells using the same markers and experimental conditions as noted above.\nOn the other hand, where endothelial cells were exposed to DDDA, there was a significant difference in NAMPT enzyme levels as is exemplarily depicted in FIG. 15."}}}
{"smiles": "O=C(O)CCCCCCCCCCC(=O)O", "note": "[DDDA, dodecanedioic acid]", "values": [{"measurement": "SIRT3 protein levels", "setting": "SIRT3", "value": "significantly increased"}, {"measurement": "peroxide induced DNA damage", "setting": "[1]", "value": "trend towards decreased DNA damage"}, {"measurement": "global SIRT activity", "setting": "SIRT enzymes; 6 hours, in the presence of hydrogen peroxide, p<0.001", "value": "increased global SIRT activity in a statistically significant manner"}, {"measurement": "global SIRT activity", "setting": "SIRT enzymes; 24 hours, no hydrogen peroxide, same trend, p=0.065", "value": "did not reach a level of significance"}, {"measurement": "PGC-1α", "setting": "PGC-1α", "value": "did not show a statistically significant difference"}]}
